In patent publication US20200268835A1, “Compounds For Use in NASH” (Novo Nordisk A/S, priority 2019, published 2020):
Numbered stars: 1 amine (or outer) side, 2 acyl side, 3 side chain; on linkers, the order of the positions; unused ones are H or OH. Square brackets hold non-standard residues; d marks the D form. Side chains are listed from the residue outwards. Peptide text beside a SMILES is read from it. * marks the point of attachment. C18 diacid = O=C(O)CCCCCCCCCCCCCCCCC(=O)*; γGlu = O=C(O)[C@H](CCC(=O)[*:2])N[*:1]; Ac4c = NC1(C(=O)O)CCC1; AEEA = NCCOCCOCC(=O)O; Aib = CC(C)(N)C(=O)O

Columns and labels:
[1] = target: T1, human GLP-1 receptor (Homo sapiens, UniProt P43220); assay: GLP-1 receptor SPA binding assay; details: 0% HSA; BHK cell membranes; displacement of [125I]-GLP-1(7-36)-NH2; read-out: Human GLP1 R SPA binding 0% HSA IC50
T1 construct: expressed in transfected cells; membrane preparation
Description: (§1) In one embodiment affinity refers to in vitro binding affinity, i.e. performance in a GLP-1 receptor binding affinity assay and in a glucagon receptor binding affinity assay, more particularly to the capability of binding the human GLP-1 receptor and to the human glucagon receptor. The binding affinity of the human GLP-1 receptor may be measured in a binding assay, e.g. in a stably transfected BHK cell line that expresses the human GLP-1 receptor. Radioactively labelled GLP-1 binds to the receptor and may be displaced competitvely by a compound. Binding of radioligand may be determined in the presence of scintillation proximity assay (SPA) beads which bind to cell membranes and when radioactivity is close to the bead it produces light which is measured and is a measure of the in vitro binding affinity. […] The binding affinity of the human glucagon receptor may be measured in a binding affinity assay, e.g. in a stably transfected BHK cell line that expresses the human glucagon receptor. […] Binding of radioligand may be determined in the presence of scintillation proximity assay (SPA) beads which bind to cell membranes and when radioactivity is close to the bead it produces light which is measured and is a measure of the in vitro binding affinity. […] The protein concentration was subsequently determined, and the membranes were stored at −80° C. until use. […]

[2] = target: T2, human glucagon receptor (Homo sapiens, UniProt P47871); assay: Glucagon receptor SPA binding assay; details: 0% HSA; BHK cell membranes; displacement of [125I]-glucagon; read-out: Human GCG R SPA binding 0% HSA IC50
T2 construct: expressed in transfected cells; membrane preparation
Description: as §1

[3] = Plasma alanine transferase levels in diet-induced NASH mice; assay type: in vivo, male C57BL/6 mice; details: after 56 days of treatment, SC once daily; FIG. 3
Procedure: (§2) At 5 weeks of age, male C57BL/6 mice were purchased from JanVier, France. During the acclimatization and diet-induction period, the mice were group housed ten per cage in custom-made cabinets under a 12:12 light dark cycle (lights on from 3 AM-3 PM) at controlled temperature conditions (22±1° C.; 50±10% relative humidity). Throughout the diet-induction the mice had ad libitum access to AMLN diet (D09100301, Research Diet, USA) (40% fat (18% trans-fat), 40% carbohydrates (20% fructose) and 2% cholesterol) or regular rodent chow (chow vehicle group) (Altromin 1324, Brogaarden, Denmark) and tap water. Throughout the study period the mice had ad libitum access to AMLN diet, except the weight-matched group which was food restricted to lower the body weight to the same level as for animals receiving compound A or compound B, or regular rodent chow (chow vehicle group) and tap water. […]
(§3) During the diet-induction period, body weight was intermittently monitored. […]
Animal experiments were conducted as described in the section “General Methods of Animal Experiments”. […] All parameters are measured in single determinations using autoanalyzer Cobas C-111 with commercial kit (Roche Diagnostics, Germany) according to the manufacturer's instructions. Data are expressed as mean±SEM (NASH groups n=11-12, Chow Vehicle group n=10). […]

[4] = Hepatic terminal triglycerides and cholesterol content in diet-induced NASH mice; assay type: in vivo, male C57BL/6 mice; details: after 56 days of treatment; FIG. 5A
Procedure: as §2, §3
Animal experiments were conducted as described in the section “General Methods of Animal Experiments”. Triglycerides and total cholesterol content in liver homogenates were measured in single determinations using autoanalyzer Cobas C-111 with commercial kit (Roche Diagnostics, Germany) according to manufacturer's instructions. […]

T2 sequence (P47871 26-477): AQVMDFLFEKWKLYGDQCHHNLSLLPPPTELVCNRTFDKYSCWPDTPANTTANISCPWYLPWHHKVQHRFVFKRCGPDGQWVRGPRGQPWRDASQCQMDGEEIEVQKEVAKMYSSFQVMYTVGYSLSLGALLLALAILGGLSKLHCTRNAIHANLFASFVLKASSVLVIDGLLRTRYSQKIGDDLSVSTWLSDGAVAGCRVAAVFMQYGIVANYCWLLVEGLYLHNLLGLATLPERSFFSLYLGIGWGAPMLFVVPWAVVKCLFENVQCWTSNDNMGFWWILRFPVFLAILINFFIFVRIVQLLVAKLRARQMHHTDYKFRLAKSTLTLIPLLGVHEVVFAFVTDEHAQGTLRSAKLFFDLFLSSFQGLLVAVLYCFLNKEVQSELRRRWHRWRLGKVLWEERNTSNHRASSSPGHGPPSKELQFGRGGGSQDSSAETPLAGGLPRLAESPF
T1 sequence (P43220 24-463): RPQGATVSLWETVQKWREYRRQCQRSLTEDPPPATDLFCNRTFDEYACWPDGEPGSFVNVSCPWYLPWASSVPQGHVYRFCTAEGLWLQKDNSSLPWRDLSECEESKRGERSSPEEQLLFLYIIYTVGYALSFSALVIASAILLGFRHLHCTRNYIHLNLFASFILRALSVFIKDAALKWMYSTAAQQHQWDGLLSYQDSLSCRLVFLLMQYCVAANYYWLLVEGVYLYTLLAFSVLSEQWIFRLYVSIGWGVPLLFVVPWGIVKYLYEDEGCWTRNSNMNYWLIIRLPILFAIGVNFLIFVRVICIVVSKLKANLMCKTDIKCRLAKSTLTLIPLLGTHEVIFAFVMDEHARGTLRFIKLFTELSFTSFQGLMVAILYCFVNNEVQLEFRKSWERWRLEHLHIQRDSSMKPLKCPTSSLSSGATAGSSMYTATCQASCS

Row | Structure (SMILES) | IC50 [1] [nM] | IC50 [2] [nM] | effect on plasma ALT levels compared with the weight-matched (WM) group [3] | effect on liver triglyceride levels compared with the weight-matched (WM) group [4]
1 | CC(C)C[C@H](NC(=O)[C@H](Cc1ccc(O)cc1)NC(=O)[C@H](CCCCN)NC(=O)[C@H](CO)NC(=O)[C@H](CC(C)C)NC(=O)[C@H](CC(=O)O)NC(=O)[C@H](CO)NC(=O)[C@@H](NC(=O)[C@H](Cc1ccccc1)NC(=O)[C@@H](NC(=O)CNC(=O)[C@H](CCC(N)=O)NC(=O)C(C)(C)NC(=O)[C@@H](N)Cc1c[nH]cn1)[C@@H](C)O)[C@@H](C)O)C(=O)N[C@@H](CCC(=O)O)C(=O)N[C@@H](CO)C(=O)N[C@@H](CCCCN)C(=O)N[C@@H](CCCNC(=N)N)C(=O)N[C@@H](C)C(=O)N[C@@H](CCCNC(=N)N)C(=O)N[C@@H](CCC(=O)O)C(=O)N[C@@H](Cc1ccccc1)C(=O)N[C@H](C(=O)N[C@@H](CCC(N)=O)C(=O)N[C@@H](Cc1c[nH]c2ccccc12)C(=O)N[C@@H](CC(C)C)C(=O)N[C@@H](CC(C)C)C(=O)N[C@@H](CCCCNC(=O)CC[C@H](NC(=O)CC[C@H](NC(=O)[C@H](CO)NC(=O)[C@H](CCC(=O)O)NC(=O)[C@H](CO)NC(=O)CC[C@H](NC(=O)CC[C@H](NC(=O)CCCCCCCCCCCCCCCCC(=O)O)C(=O)O)C(=O)O)C(=O)O)C(=O)O)C(=O)N[C@H](C(N)=O)[C@@H](C)O)C(C)C [Compound A, N^ε28-[(4S)-4-carboxy-4-[[(4S)-4-carboxy-4-[[(2S)-2-[[(2S)-4-carboxy-2-[[(2S)-2-[[(4S)-4-carboxy-4-[[(4S)-4-carboxy-4-(17-carboxyheptadecanoylamino)butanoyl]amino]butanoyl]amino]-3-hydroxypropanoyl]amino]butanoyl]amino]-3-hydroxypropanoyl]amino]butanoyl]amino]butanoyl]-[Aib2,Leu10,Glu15,Lys17,Arg20,Glu21,Leu27,Lys28]-Glucagon amide] (H-H[Aib]QGTFTSDLSKYLESKRAREFVQWLLK([γGlu-γGlu-Ser-Glu-Ser-γGlu-γGlu-C18 diacid])T-NH2) | 0.3 | 1.4 | the observed effect is bigger | the observed effect is bigger
2 | CC(C)C[C@H](NC(=O)[C@H](CC(=O)O)NC(=O)[C@H](CC(C)C)NC(=O)[C@H](Cc1ccc(O)cc1)NC(=O)[C@H](CCCCN)NC(=O)[C@H](CO)NC(=O)[C@H](CC(C)C)NC(=O)[C@H](CC(=O)O)NC(=O)[C@H](CO)NC(=O)[C@@H](NC(=O)[C@H](Cc1ccccc1)NC(=O)[C@@H](NC(=O)CNC(=O)[C@H](CCC(N)=O)NC(=O)C1(NC(=O)[C@@H](N)Cc2c[nH]cn2)CCC1)[C@@H](C)O)[C@@H](C)O)C(=O)N[C@@H](CCCNC(=N)N)C(=O)N[C@@H](CCCNC(=N)N)C(=O)N[C@@H](C)C(=O)N[C@@H](CCCNC(=N)N)C(=O)N[C@@H](CC(=O)O)C(=O)N[C@@H](Cc1ccccc1)C(=O)N[C@H](C(=O)N[C@@H](CCC(N)=O)C(=O)N[C@@H](Cc1c[nH]c2ccccc12)C(=O)N[C@@H](CC(C)C)C(=O)N[C@@H](CC(C)C)C(=O)N[C@@H](CCCCNC(=O)CC[C@H](NC(=O)CC[C@H](NC(=O)COCCOCCNC(=O)COCCOCCNC(=O)CC[C@H](NC(=O)CC[C@H](NC(=O)CCCCCCCCCCCCCCCCC(=O)O)C(=O)O)C(=O)O)C(=O)O)C(=O)O)C(=O)N[C@H](C(N)=O)[C@@H](C)O)C(C)C [Compound B, N^ε28-[(4S)-4-carboxy-4-[[(4S)-4-carboxy-4-[[2-[2-[2-[[2-[2-[2-[[(4S)-4-carboxy-4-[[(4S)-4-carboxy-4-(17-carboxyheptadecanoylamino)butanoyl]amino]butanoyl]amino]ethoxy]ethoxy]acetyl]amino]ethoxy]ethoxy]acetyl]amino]butanoyl]amino]butanoyl]-[Acb2,Leu10,Leu16,Arg20,Leu27,Lys28]-Glucagon amide] (H-H[Ac4c]QGTFTSDLSKYLDLRRARDFVQWLLK([γGlu-γGlu-AEEA-AEEA-γGlu-γGlu-C18 diacid])T-NH2) | 1.6 | 0.8 | the observed effect is bigger | the observed effect is bigger
